Measurements: PubChem BioAssay AID342 (DTP/NCI, 2004)
Where “and” joins values, the source holds several entries; their conditions need not be identical. Equal values may be shown once.

Tested on: Swiss mice, Sarcoma 180 sc, mean tumor weight T/C
Assay: NCI In Vivo Anticancer Drug Screen. Data for tumor model Sarcoma 180 (subcutaneous) in Swiss mice
Conditions: endpoint: mean tumor weight, higher = larger tumour
Outline: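 Transplantable tumors were established in mice, compound was given, then survival or tumor size was recorded. The treated value was divided by the vehicle-control value.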

[1] = dose: 225.0 mg/kg/injection, schedule: Q01DX007 (ip), vehicle: carboxymethylcellulose (CMC)
[2] = dose: 8.0 mg/kg/injection, schedule: Q01DX007 (ip), vehicle: carboxymethylcellulose (CMC)

C[C@H]1C[C@@H]2[C@H]([C@@H](O)C[C@@]3(C)[C@H]2CC[C@]3(O)C(=O)CO)[C@@]2(C)C=CC(=O)C=C12
T/C (dose: 6.25 mg/kg/injection, schedule: Q#A X014 (sc), vehicle: steriod suspending solution): 82 % of control
T/C (dose: 12.5 mg/kg/injection, schedule: Q01DX007 (sc), vehicle: water): 45 % of control
T/C (dose: 12.5 mg/kg/injection, schedule: Q#A X014 (sc), vehicle: steriod suspending solution): 40 % of control
T/C (dose: 25.0 mg/kg/injection, schedule: Q01DX007 (sc), vehicle: water): 41 % of control
T/C (dose: 25.0 mg/kg/injection, schedule: Q#A X014 (sc), vehicle: steriod suspending solution): 33 % of control
T/C (dose: 50.0 mg/kg/injection, schedule: Q01DX007 (sc), vehicle: water): 39 % of control
T/C (dose: 50.0 mg/kg/injection, schedule: Q#A X014 (sc), vehicle: steriod suspending solution): 27 % of control
T/C (dose: 100.0 mg/kg/injection, schedule: Q01DX007 (sc), vehicle: water): 18 % of control
T/C (dose: 100.0 mg/kg/injection, schedule: Q#A X014 (sc), vehicle: steriod suspending solution): 17 % of control

CC/C(=C(/CC)c1ccc(O)cc1)c1ccc(O)cc1
T/C (dose: 19.69 mg/kg/injection, schedule: Q01DX007 (sc), vehicle: steriod suspending solution): 54 % of control
T/C (dose: 22.13 mg/kg/injection, schedule: Q01DX007 (sc), vehicle: steriod suspending solution): 51 % of control
T/C (dose: 24.0 mg/kg/injection, schedule: Q01DX007 (sc), vehicle: steriod suspending solution): 51 % of control
T/C (dose: 39.38 mg/kg/injection, schedule: Q01DX007 (sc), vehicle: steriod suspending solution): 42 % of control
T/C (dose: 44.25 mg/kg/injection, schedule: Q01DX007 (sc), vehicle: steriod suspending solution): 60 % of control
T/C (dose: 48.0 mg/kg/injection, schedule: Q01DX007 (sc), vehicle: steriod suspending solution): 37 % of control
T/C (dose: 70.8 mg/kg/injection, schedule: Q01DX007 (sc), vehicle: steriod suspending solution): 80 % of control
T/C (dose: 78.75 mg/kg/injection, schedule: Q01DX007 (sc), vehicle: steriod suspending solution): 65 % of control
T/C (dose: 96.0 mg/kg/injection, schedule: Q01DX007 (sc), vehicle: steriod suspending solution): 30 % of control
T/C (dose: 118.0 mg/kg/injection, schedule: Q01DX007 (sc), vehicle: steriod suspending solution): 72 % of control
T/C (dose: 157.5 mg/kg/injection, schedule: Q01DX007 (sc), vehicle: steriod suspending solution): 52 % of control
T/C (dose: 177.0 mg/kg/injection, schedule: Q01DX007 (sc), vehicle: steriod suspending solution): 57 % of control

CN(/N=N/c1nc[nH]c1C(N)=O)c1ccccc1
T/C (dose: 15.5 mg/kg/injection, schedule: Q#A X014 (ip), vehicle: methylcellulose (MC)): 89 % of control
T/C (dose: 31.0 mg/kg/injection, schedule: Q#A X014 (ip), vehicle: methylcellulose (MC)): 99 % of control
T/C (dose: 62.5 mg/kg/injection, schedule: Q#A X014 (ip), vehicle: methylcellulose (MC)): 46 % of control

CO[C@H]1CC[C@@]2(C)[C@@H](CC[C@H]3[C@@H]4C[C@H](O)C[C@@]4(C)CC[C@@H]32)C1
T/C (dose: 0.01 mg/kg/injection, schedule: Q#A X014 (sc), vehicle: olive oil, sesame oil, peanut oil): 121 % of control
T/C (dose: 0.05 mg/kg/injection, schedule: Q#A X014 (sc), vehicle: olive oil, sesame oil, peanut oil): 72 % of control
T/C (dose: 0.25 mg/kg/injection, schedule: Q#A X014 (sc), vehicle: olive oil, sesame oil, peanut oil): 112 % of control
T/C (dose: 50.0 mg/kg/injection, schedule: Q#A X014 (ip), vehicle: distilled water + alcohol): 95 % of control

CC(=O)OCC(=O)[C@@]1(O)CC[C@H]2[C@@H]3C[C@H](C)C4=CC(=O)C=C[C@]4(C)[C@@]3(F)[C@@H](O)C[C@@]21C
T/C (dose: 125.0 mg/kg/injection, schedule: Q01DX007 (sc), vehicle: steriod suspending solution): 41 % of control
T/C (dose: 187.0 mg/kg/injection, schedule: Q01DX007 (sc), vehicle: steriod suspending solution): 30 % of control

c1ccc2cc3c(cc2c1)Cn1c-3nc2ccccc21
T/C (dose: 25.0 mg/kg/injection, schedule: Q01DX007 (ip), vehicle: carboxymethylcellulose (CMC)): 76 % of control
T/C (dose: 50.0 mg/kg/injection, schedule: Q01DX007 (ip), vehicle: carboxymethylcellulose (CMC)): 86 % of control
T/C (dose: 200.0 mg/kg/injection, schedule: Q01DX007 (ip), vehicle: carboxymethylcellulose (CMC)): 53 % of control and 57 % of control
T/C (dose: 400.0 mg/kg/injection, schedule: Q01DX007 (ip), vehicle: carboxymethylcellulose (CMC)): 54 % of control
T/C (dose: 500.0 mg/kg/injection, schedule: Q01DX007 (ip), vehicle: carboxymethylcellulose (CMC)): 27 % of control and 34 % of control
T/C (dose: 800.0 mg/kg/injection, schedule: Q01DX007 (ip), vehicle: carboxymethylcellulose (CMC)): 38 % of control

CC(C)(C)C(=O)/C=C/c1ccc([N+](=O)[O-])cc1
T/C (dose: 50.0 mg/kg/injection, schedule: Q#A X014 (ip), vehicle: methylcellulose (MC)): 92 % of control
T/C (dose: 187.5 mg/kg/injection, schedule: Q#A X014 (ip), vehicle: methylcellulose (MC)): 70 % of control

NC1=CC(=O)c2ccccc2C1=O
T/C (dose: 31.0 mg/kg/injection, schedule: Q01DX007 (ip), vehicle: other): 73 % of control
T/C (dose: 62.0 mg/kg/injection, schedule: Q01DX007 (ip), vehicle: other): 83 % of control

Cn1c(N)nc2nc[nH]c2c1=S
T/C (dose: 1.35 mg/kg/injection, schedule: Q#A X014 (ip), vehicle: methylcellulose (MC)): 108 % of control
T/C (dose: 2.0 mg/kg/injection, schedule: Q#A X014 (ip), vehicle: methylcellulose (MC)): 45 % of control
T/C (dose: 3.0 mg/kg/injection, schedule: Q#A X014 (ip), vehicle: methylcellulose (MC)): 67 % of control
T/C (dose: 4.5 mg/kg/injection, schedule: Q#A X014 (ip), vehicle: methylcellulose (MC)): 37 % of control

CS(=O)(=O)OCCC(=O)N1CCN(C(=O)CCOS(C)(=O)=O)CC1
T/C (dose: 12.5 mg/kg/injection, schedule: Q01DX007 (ip), vehicle: saline): 92 % of control
T/C (dose: 25.0 mg/kg/injection, schedule: Q01DX007 (ip), vehicle: saline): 76 % of control and 100 % of control
T/C (dose: 67.0 mg/kg/injection, schedule: Q#A X014 (ip), vehicle: methylcellulose (MC)): 8 % of control and 23 % of control
T/C (dose: 150.0 mg/kg/injection, schedule: Q#A X014 (ip), vehicle: methylcellulose (MC)): 7 % of control

CCOC(=O)CCc1ccc(N=NN2CCCC2)cc1
T/C [1]: 110 % of control
T/C (dose: 450.0 mg/kg/injection, schedule: Q01DX007 (ip), vehicle: carboxymethylcellulose (CMC)): 95 % of control

C=CC1CN2CCC1CC2C(O)c1ccnc2ccc(OC)cc12 (stereo not drawn)
T/C (dose: 30.16 mg/kg/injection, schedule: Q01DX007 (ip), vehicle: other): 96 % of control
T/C (dose: 31.25 mg/kg/injection, schedule: Q#A X014 (ip), vehicle: carboxymethylcellulose (CMC)): 101 % of control
T/C (dose: 47.12 mg/kg/injection, schedule: Q01DX007 (ip), vehicle: carboxymethylcellulose (CMC)): 92 % of control
T/C (dose: 56.25 mg/kg/injection, schedule: Q01DX007 (ip), vehicle: carboxymethylcellulose (CMC)): 89 % of control
T/C (dose: 60.32 mg/kg/injection, schedule: Q01DX007 (ip), vehicle: other): 75 % of control
T/C (dose: 62.5 mg/kg/injection, schedule: Q#A X014 (ip), vehicle: carboxymethylcellulose (CMC)): 120 % of control
T/C (dose: 94.25 mg/kg/injection, schedule: Q01DX007 (ip), vehicle: carboxymethylcellulose (CMC)): 93 % of control
T/C (dose: 112.5 mg/kg/injection, schedule: Q01DX007 (ip), vehicle: carboxymethylcellulose (CMC)): 80 % of control
T/C (dose: 120.65 mg/kg/injection, schedule: Q01DX007 (ip), vehicle: other): 99 % of control
T/C (dose: 125.0 mg/kg/injection, schedule: Q#A X014 (ip), vehicle: carboxymethylcellulose (CMC)): 121 % of control
T/C (dose: 188.5 mg/kg/injection, schedule: Q01DX007 (ip), vehicle: carboxymethylcellulose (CMC)): 78 % of control
T/C [1]: 118 % of control
T/C (dose: 241.3 mg/kg/injection, schedule: Q01DX007 (ip), vehicle: other): 97 % of control
T/C (dose: 250.0 mg/kg/injection, schedule: Q#A X014 (ip), vehicle: carboxymethylcellulose (CMC)): 50 % of control

N#[N+]c1cnc([O-])[nH]c1=O
T/C (dose: 1.0 mg/kg/injection, schedule: Q01DX007 (ip), vehicle: carboxymethylcellulose (CMC)): 103 % of control
T/C (dose: 2.0 mg/kg/injection, schedule: Q01DX007 (ip), vehicle: carboxymethylcellulose (CMC)): 102 % of control
T/C (dose: 4.0 mg/kg/injection, schedule: Q01DX007 (ip), vehicle: carboxymethylcellulose (CMC)): 105 % of control
T/C [2]: 95 % of control

C=C(C)C(=O)OCC1CO1 (stereo not drawn)
T/C (dose: 250.0 mg/kg/injection, schedule: Q01DX007 (ip), vehicle: other): 97 % of control
T/C (dose: 375.0 mg/kg/injection, schedule: Q01DX007 (ip), vehicle: other): 74 % of control

c1ccc(CNc2ncnc3[nH]ncc23)cc1
T/C [2]: 87 % of control
T/C (dose: 16.0 mg/kg/injection, schedule: Q01DX007 (ip), vehicle: carboxymethylcellulose (CMC)): 106 % of control
T/C (dose: 31.0 mg/kg/injection, schedule: Q01DX007 (ip), vehicle: carboxymethylcellulose (CMC)): 62 % of control
